In patent publication US20190328706A1, “COMPOSITIONS COMPRISING AN INTEGRIN INHIBITOR AND AGENTS WHICH INTERACT WITH A CHEMOKINE AND METHODS OF USE THEREOF” (Saint Louis University, priority 2016, published 2019):
pIC50: −log10 of the molar value. Like-named read-outs stand apart in the source and are kept apart here.

Tests used:
[1] = system: human G2 acute lymphoblastic leukemia (ALL) cells; test: Flow cytometry cell-based assay: inhibition of soluble VCAM-1 binding to G2 ALL cells
Protocol: (§1) Compounds were tested for their ability to inhibit the binding of soluble VCAM-1 to human G2 acute lymphoblastic leukemia (ALL) cells. Briefly, G2 ALL cells are pre-incubated with increasing concentrations (0.001 to 1000 nM) of compounds for 30 minutes. Soluble VCAM/Fc chimera protein (R&D systems) is then added to the mixture and the cells incubated for an additional 30 minutes. Afterwards, cells are washed and VCAM-1 is detected using PE-conjugated secondary mAbs. In each experiment, an aliquot of cells will be stained with isotype control mAbs to serve as a negative control. The percentage of VCAM-1 binding cells was then determined by flow cytometry.
as §1, with “(ALL) cells or 5TGMI myeloma” for “(ALL)”, “ALL or 5TGMI” for “ALL”

[2] = system: LSK cells; test: Flow cytometric enumeration of mobilized LSK cells, DBA/2J mice; format: in vivo; conditions: for LSK cell mobilization compared with firategrast: FIG. 17
Protocol: Peripheral blood (PB) was drawn from the facial vein without anaesthesia into K/EDTA anti-coagulated tubes (Sarstedt AG & Co, Nimbrecht, Germany). Cell counts (WBC) were determined using an automatic hemocytometer (Hemavet 950, Drew Scientific, Dallas, Tex.). Red blood cells were removed from 25 μL aliquots of blood using hypotonic lysis (Ammonium-Chloride-Potassium, ACK buffer, 5-10 min at RT). Samples were resuspended in staining buffer (PBS supplemented with 0.5% bovine serum albumin and 2 mM EDTA) and incubated for 30 min at 4° C. with pre-titrated saturating dilutions of the following fluorochrome-labeled monoclonal antibodies (BD Biosciences, San Jose, Calif.; clone designated in parenthesis): Sca1-PE (D7), CD117-BV421 (ACK2), lineage-APC (17A2, RB6-8C5, RA3-6B2, Ter-119, M/170) and CD45-A700 (30-F11). Dead cells were excluded from these assays by staining with 2 μg/mL 7-amino-actinomycin D (Molecular Probes, Eugene, Oreg.) for 5 min prior to analysis. Appropriate isotype-matched negative controls were used to assess background fluorescence intensity. Samples were analyzed on a Beckman Coulter Gallios flow cytometer and data were analyzed using FlowJo software (TreeStar, Ashland, Oreg.). Absolute numbers of immunophenotypically defined populations (e.g. LSK) were calculated by identifying CD45 positive cells as WBC from the corresponding cell count analysis. Statistical comparisons of flow cytometry data were performed using an unpaired two-tailed Student t-test (GraphPad Prism). P-values ≤0.05 were considered significant.

[3] = system: 5TGMI myeloma cells; test: Flow cytometry cell-based assay: inhibition of soluble VCAM-1 binding to 5TGMI myeloma cells; conditions: FIG. 12
Protocol: as §1, with “(ALL) cells or 5TGMI myeloma” for “(ALL)”, “ALL or 5TGMI” for “ALL”

[4] = system: murine HSPCs; test: Colony forming cell (CFC/CFU) assay of mobilized peripheral blood, DBA/2 mice; format: in vivo; conditions: for amount of CFU-C cells mobilized in combination with Groβt versus inhibitor alone: DBA/2J mice, FIG. 16
Protocol: The VLA-4 inhibitors Examples 1220, 1221, 1224, 1610, and 1611 were prepared in DMSO/10 mM sodium bicarbonate pH 8/saline (1%/49.5%/49.5%) and injected subcutaneously (SC) at a dose of 3 mg/kg.
(§2) Peripheral blood (PB) was drawn from the facial vein without anaesthesia into K/EDTA anti-coagulated tubes (Sarstedt AG & Co, Numbrecht, Germany). Red blood cells were removed from 25 L aliquots of blood using hypotonic lysis (Ammonium-Chloride-Potassium, ACK buffer, 5-10 min at RT) and samples were mixed with 2.5 mL methylcellulose media supplemented with a cocktail of recombinant cytokines (MethoCult 3434; Stem Cell Technologies, Vancouver, BC, Canada). Cultures were plated in duplicate in 35 mm dishes and placed in a humidified chamber with 5% CO2 at 37° C. After 7 d of culture, colonies containing at least 50 cells were counted using an inverted microscope in a blinded fashion.
(§3) Recombinant human CXCL2 (Groβt; R&D systems) was reconstituted in sterile Ca^+2/Mg^+2-free phosphate buffered saline (PBS) and injected subcutaneously (SC) at a dose of 2.5 mg/kg. Firategrast (U.S. Patent Application No. 2014/051655) was dissolved in Ca^+2/Mg^+2-free PBS plus 1% ethanol and injected intravenously at a dose of 100 mg/kg. RhG-CSF (Neupogen®, Filgrastim, Amgen, Thousand Oaks, Calif., USA) diluted in PBS was injected i.p. every 12 hrs at a dose of 100 μg/kg for a total of 9 (day 5) doses.
as §2, with “Co, Nimbrecht,” for “Co, Numbrecht,”, “25 μL” for “25 L”
as §3, with “(published structure: C27H27F2NO6; U.S.” for “(U.S.”

[5] = Table 8; inhibition of sVCAM-1 binding to human G2 ALL cells; read-out: sVCAM-1 IC50
[6] = flow cytometry, FIG. 5, 8, 9, 12
[7] = Table 10; inhibition of sVCAM-1 binding to human G2 ALL cells; read-out: sVCAM-1 IC50
[8] = Table 12; inhibition of sVCAM-1 binding to human G2 ALL cells; read-out: sVCAM-1 IC50

Compound	pIC50 [1, 5]	inhibition of sVCAM-1 binding compared with Firategrast [1, 6]	LSK cell mobilization compared with firategrast [2]	further results
CCOCc1cc(OC)c(-c2ccc(C[C@H](NC(=O)[C@@H]3CCCN3S(=O)(=O)c3cc(Cl)cc(Cl)c3)C(=O)O)cc2)c(OC)c1 [Compound 1611, (S)-2-((S)-1-((3,5-dichlorophenyl)sulfonyl)pyrrolidine-2-carboxamido)-3-(4′-(ethoxymethyl)-2′,6′-dimethoxy-[1,1′-biphenyl]-4-yl)propanoic acid]	9.31	significantly more potent than Firategrast	greater extent than firategrast	inhibition of VCAM binding in 5TGMI cells compared with Firategrast / BIO5192 [3]: even more potent than BIO5192
CCOCc1cc(OC)c(-c2ccc(C[C@H](NC(=O)[C@@H]3CCCN3S(=O)(=O)c3cc(Cl)cc(Cl)c3)C(=O)O)cc2)c(OC)c1 [Cmpd 36, (S)-2-((S)-1-((3,5-dichlorophenyl)sulfonyl)pyrrolidine-2-carboxamido)-3-(4′-(ethoxymethyl)-2′,6′-dimethoxy-[1,1′-biphenyl]-4-yl)propanoic acid]				pIC50 ([1]; read-out: sVCAM-1 IC50; Table 12; inhibition of sVCAM-1 binding to human G2 ALL cells): 9.31; amount of CFU-C cells mobilized in combination with Groβt versus inhibitor alone [4]: nearly doubled
COc1cc(CC(=O)N[C@@H](CC(C)C)c2cc(CCC(=O)O)on2)ccc1NC(=O)Nc1ccccc1C [Compound 842]		significantly more potent		pIC50 [1, 7]: 9.40; CFU-C mobilization, VLA4 blockade combined with CXCR2 stimulation ([4]; DBA2/J mice, FIG. 15/29): mobilized; LSK mobilization, VLA4 blockade combined with CXCR2 stimulation ([2]; DBA2/J mice, FIG. 15/29): mobilized
CCOCc1cc(OC)c(-c2ccc(C[C@H](NC(=O)c3c(Cl)cccc3Cl)C(=O)O)cc2C(C)O)c(OC)c1 (stereo partly drawn) [Cmpd 12, (2S)-2-(2,6-dichlorobenzamido)-3-(4′-(ethoxymethyl)-2-(1-hydroxyethyl)-2′,6′-dimethoxy-[1,1′-biphenyl]-4-yl)propanoic acid]				pIC50 [1, 8]: 8.48; amount of CFU-C cells mobilized in combination with Groβt versus inhibitor alone [4]: nearly doubled
CCOCc1cc(OC)c(-c2ccc(C[C@H](NC(=O)c3c(Cl)cccc3Cl)C(=O)O)cc2C(C)O)c(OC)c1 (stereo partly drawn) [Compound 1633, (2S)-2-(2,6-dichlorobenzamido)-3-(4′-(ethoxymethyl)-2-(1-hydroxyethyl)-2′,6′-dimethoxy-[1,1′-biphenyl]-4-yl)propanoic acid]	8.48	significantly more potent than Firategrast	greater extent than firategrast	
CCOCc1cc(OC)c(-c2ccc(C[C@H](NC(=O)[C@@H]3CCCN3S(=O)(=O)c3ccccc3)C(=O)O)cc2)c(OC)c1 [Cmpd 35, (S)-3-(4′-(ethoxymethyl)-2′,6′-dimethoxy-[1,1′-biphenyl]-4-yl)-2-((S)-1-(phenylsulfonyl)pyrrolidine-2-carboxamido)propanoic acid]				pIC50 [1, 8]: 9.08; amount of CFU-C cells mobilized in combination with Groβt versus inhibitor alone [4]: nearly doubled
COc1cccc(OC)c1-c1ccc(C[C@H](NC(=O)[C@]2(C)CCCN2S(=O)(=O)c2cc(Cl)cc(Cl)c2)C(=O)O)cc1 [Compound 824]		significantly more potent	greater extent than firategrast	pIC50 [1, 7]: 9.22
CCOCc1cc(OC)c(-c2ccc(C[C@H](NC(=O)[C@@H]3CCCN3S(=O)(=O)c3ccccc3)C(=O)O)cc2)c(OC)c1 [Compound 1610, (S)-3-(4′-(ethoxymethyl)-2′,6′-dimethoxy-[1,1′-biphenyl]-4-yl)-2-((S)-1-(phenylsulfonyl)pyrrolidine-2-carboxamido)propanoic acid]	9.08	significantly more potent than Firategrast	greater extent than firategrast	inhibition of VCAM binding in 5TGMI cells compared with Firategrast / BIO5192 [3]: even more potent than BIO5192
CCCCCCOCc1cc(OC)c(-c2ccc(C[C@H](NC(=O)c3c(Cl)cc(C(=O)O)cc3Cl)C(=O)O)cc2)c(OC)c1 [Compound 1555, (S)-4-((1-carboxy-2-(4′-((hexyloxy)methyl)-2′,6′-dimethoxy-[1,1′-biphenyl]-4-yl)ethyl)carbamoyl)-3,5-dichlorobenzoic acid]	7.89	greater inhibition of sVCAM-1 binding than did Firategrast		
COCCOCCOCCOCc1cc(OC)c(-c2ccc(C[C@H](NC(=O)[C@@H]3CCN3S(=O)(=O)c3cc(Cl)cc(Cl)c3)C(=O)O)cc2)c(OC)c1 [Compound 2088, (S)-3-(4′-(2,5,8,11-tetraoxadodecyl)-2′,6′-dimethoxy-[1,1′-biphenyl]-4-yl)-2-((S)-1-((3,5-dichlorophenyl)sulfonyl)azetidine-2-carboxamido)propanoic acid]	9.15			inhibition of sVCAM-1 binding compared with other inhibitors ([1]; flow cytometry, FIG. 6, 7, 10, 11): inhibition was greatest
CCOCc1cc(OC)c(-c2ccc(C[C@H](NC(=O)c3c(Cl)cc(C(=O)O)cc3Cl)C(=O)O)cc2)c(OC)c1 [Cmpd 23, 4-{[(1S)-1-carboxy-2-{4-[4-(ethoxymethyl)-2,6-dimethoxyphenyl]phenyl}ethyl]carbamoyl}-3,5-dichlorobenzoic acid]				pIC50 [1, 8]: 9.24
CCCCCC(=O)OCc1cc(OC)c(-c2ccc(C[C@H](NC(=O)c3c(Cl)cc(C(=O)O)cc3Cl)C(=O)O)cc2)c(OC)c1 [Compound 1571, (S)-4-((1-carboxy-2-(4′-((hexanoyloxy)methyl)-2′,6′-dimethoxy-[1,1′-biphenyl]-4-yl)ethyl)carbamoyl)-3,5-dichlorobenzoic acid]	8.35	greater inhibition of sVCAM-1 binding than did Firategrast		
